Counter-ions that a name gives are not always drawn.
Target: T1, recombinant full-length USP7 (Homo sapiens, UniProt Q93009)
T1 construct: A 25 μl reaction volume containing recombinant full-length USP7 (62 pM)
Test: USP7-mediated ubiquitin-rhodamine cleavage assay
Format: biochemical
Conditions: recombinant full-length USP7 62 pM; ubiquitin-rhodamine 100 nM; 30-minute incubation with compound, 1 hour reaction at room temperature; read-out: Potency: USP7 IC50
In short: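 After compound and enzyme (62 pM) sat together 30 min at RT, 100 nM fluorogenic ubiquitin-rhodamine substrate was added for 1 h protected from light. Acetic acid quenched the reaction prior to the fluorescence read.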

T1 sequence (Q93009 whole entry): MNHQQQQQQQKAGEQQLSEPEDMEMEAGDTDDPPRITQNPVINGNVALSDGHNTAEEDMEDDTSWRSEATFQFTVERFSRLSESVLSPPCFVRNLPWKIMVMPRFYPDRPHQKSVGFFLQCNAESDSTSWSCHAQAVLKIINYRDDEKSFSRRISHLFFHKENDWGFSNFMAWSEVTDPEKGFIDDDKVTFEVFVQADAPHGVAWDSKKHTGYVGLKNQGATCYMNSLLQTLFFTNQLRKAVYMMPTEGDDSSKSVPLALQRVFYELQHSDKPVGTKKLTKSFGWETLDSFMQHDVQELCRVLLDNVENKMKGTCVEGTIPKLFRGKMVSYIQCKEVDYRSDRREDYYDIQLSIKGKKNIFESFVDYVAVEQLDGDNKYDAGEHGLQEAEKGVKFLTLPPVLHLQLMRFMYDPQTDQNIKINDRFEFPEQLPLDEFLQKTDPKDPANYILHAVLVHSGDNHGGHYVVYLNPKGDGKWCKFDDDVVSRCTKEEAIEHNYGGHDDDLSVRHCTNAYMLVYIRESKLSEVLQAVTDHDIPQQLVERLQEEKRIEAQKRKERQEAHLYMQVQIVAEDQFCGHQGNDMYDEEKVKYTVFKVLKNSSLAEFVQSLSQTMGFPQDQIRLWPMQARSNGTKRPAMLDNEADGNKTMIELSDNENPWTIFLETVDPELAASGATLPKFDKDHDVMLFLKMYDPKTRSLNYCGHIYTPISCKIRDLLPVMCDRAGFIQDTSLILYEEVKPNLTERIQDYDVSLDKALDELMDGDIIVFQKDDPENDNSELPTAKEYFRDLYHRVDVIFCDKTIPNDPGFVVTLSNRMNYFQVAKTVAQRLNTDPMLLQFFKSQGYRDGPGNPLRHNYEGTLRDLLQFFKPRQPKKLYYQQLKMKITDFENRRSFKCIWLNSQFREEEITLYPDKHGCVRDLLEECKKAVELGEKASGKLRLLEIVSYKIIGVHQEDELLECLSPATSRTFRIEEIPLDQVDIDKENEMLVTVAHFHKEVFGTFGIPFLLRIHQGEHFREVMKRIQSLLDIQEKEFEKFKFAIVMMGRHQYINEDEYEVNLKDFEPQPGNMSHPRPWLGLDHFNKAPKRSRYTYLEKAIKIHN

Row | SMILES | IC50 [nM]
1 | Cc1cc(Cl)cc(-c2ccnc3cc(CN4C(=O)CCC4=O)sc23)c1O[C@@H]1CNCC[C@@H]1C [Example 243, 1-((7-(5-Chloro-3-methyl-2-(((3S,4S)-4-methylpiperidin-3-yl)oxy)phenyl)thieno[3,2-b]pyridin-2-yl)methyl)pyrrolidine-2,5-dione] | < 1000
2 | Cc1cc(Cl)cc(-c2ccnc3cc(CN4C(=O)CCC4=O)sc23)c1OC1CNC(C)(C)C1 (centres unmarked) [Example 130, 1-((7-(5-Chloro-2-((5,5-dimethylpyrrolidin-3-yl)oxy)-3-methylphenyl)thieno[3,2-b]pyridin-2-yl)methyl)pyrrolidine-2,5-dione] | < 1000
3 | Cc1cc(Cl)cc(-c2ccnc3cc(CN4C(=O)CCNC4=O)sc23)c1O[C@@H]1CNC[C@@H]1F [Example 152, 3-((7-(5-Chloro-2-(((3R,4S)-4-fluoropyrrolidin-3-yl)oxy)-3-methylphenyl)thieno[3,2-b]pyridin-2-yl)methyl)dihydropyrimidine-2,4(1H,3H)-dione] | < 1000
4 | Cc1cc(Cl)cc(-c2ccnc3cc(CN4C(=O)CCCC4=O)sc23)c1OC1CCNCC1 [Example 235, 1-((7-(5-Chloro-3-methyl-2-(piperidin-4-yloxy)phenyl)thieno[3,2-b]pyridin-2-yl)methyl)piperidine-2,6-dione] | < 1000
5 | Cc1cc(Cl)cc(-c2ncnc3cc(CN4C(=O)c5ccccc5C4=O)sc23)c1O[C@@H]1CNC[C@@H]1F [Example 149, 2-((4-(5-Chloro-2-(((3R,4S)-4-fluoropyrrolidin-3-yl)oxy)-3-methylphenyl)thieno[3,2-d]pyrimidin-6-yl)methyl)isoindoline-1,3-dione] | < 1000
6 | OCc1cc2nccc(-c3cc(Cl)cc(Br)c3O[C@H]3CCCNC3)c2s1 [Example 166, (S)-(7-(3-Bromo-5-chloro-2-(piperidin-3-yloxy)phenyl)thieno[3,2-b]pyridin-2-yl)methanol] | 1000 to 10000
7 | O=C1CCC(=O)N1Cc1cc2nccc(-c3cc(Cl)cc(C(F)(F)F)c3O[C@@H]3CNC[C@@H]3F)c2s1 [Example 120, 1-((7-(5-Chloro-2-(((3R,4S)-4-fluoropyrrolidin-3-yl)oxy)-3-(trifluoromethyl)phenyl)thieno[3,2-b]pyridin-2-yl)methyl)pyrrolidine-2,5-dione] | < 1000
8 | Cc1cc(Cl)cc(-c2ccnc3cc(Cn4c(=O)ccn(C(C)C)c4=O)sc23)c1O[C@@H]1CNC[C@@H]1C [Example 329, 3-[[7-[5-chloro-3-methyl-2-[(3S,4S)-4-methylpyrrolidin-3-yl]oxy-phenyl]thieno[3,2-b]pyridin-2-yl]methyl]-1-isopropyl-pyrimidine-2,4-dione] | < 1000
9 | Cc1cc(Cl)cc(-c2ccnc3cc(CN4C(=O)CCC4=O)sc23)c1O[C@@H]1CNC[C@@H]1CF [Example 108, 1-((7-(5-Chloro-2-(((3S,4S)-4-(fluoromethyl)pyrrolidin-3-yl)oxy)-3-methylphenyl)thieno[3,2-b]pyridin-2-yl)methyl)pyrrolidine-2,5-dione] | < 1000
10 | Cc1cc(Cl)cc(-c2ccnc3cc(CN4C(=O)C5CCCCN5C4=O)sc23)c1OC1CCNCC1 (centres unmarked) [Example 228, 2-((7-(5-Chloro-3-methyl-2-(piperidin-4-yloxy)phenyl)thieno[3,2-b]pyridin-2-yl)methyl)tetrahydroimidazo[1,5-a]pyridine-1,3(2H,5H)-dione] | < 1000
11 | Cc1cc(Cl)cc(-c2ccnc3cc(CO)sc23)c1OC[C@@H]1CNCCN1 [Example 168, (S)-(7-(5-Chloro-3-methyl-2-(piperazin-2-ylmethoxy)phenyl)thieno[3,2-b]pyridin-2-yl)methanol] | 10000 to 30000

The next lines start with the values.

Row | IC50 [nM] | SMILES
12 | < 1000 | Cc1cc(Cl)cc(-c2ccnc3cc(CN4C(=O)C5C(C4=O)C5(C)C)sc23)c1OC1CN(C)CC1(C)F (centres unmarked) [Example 375, 3-[[7-[5-chloro-2-(4-fluoro-1,4-dimethyl-pyrrolidin-3-yl)oxy-3-methyl-phenyl]thieno[3,2-b]pyridin-2-yl]methyl]-6,6-dimethyl-3-azabicyclo[3.1.0]hexane-2,4-dione dihydrochloride]
13 | < 1000 | CCOC(=O)NN(Cc1cc2nccc(-c3cc(Cl)cc(C)c3O[C@@H]3CCNC[C@@H]3C)c2s1)C(=O)OCC [Example 402, ethyl N-[[7-[5-chloro-3-methyl-2-[[(3S,4R)-3-methyl-4-piperidyl]oxy]phenyl]thieno[3,2-b]pyridin-2-yl]methyl]-N-(ethoxycarbonylamino)carbamate]

Same assay, conditions: recombinant full-length USP7 62 pM; ubiquitin-rhodamine 100 nM; 30-minute incubation, 1 hour reaction at room temperature; read-out: Potency (USP7 IC50)

Row | SMILES | IC50 [nM]
14 | COC[C@@H]1CCC[N+]1(C)C1CC(Oc2c(C)cc(Cl)cc2-c2ccnc3cc(Cn4c(=O)ccn(CC(F)(F)F)c4=O)sc23)C1 (stereo partly drawn) [Example 688, 3-[[7-[5-chloro-2-[3-[(2S)-2-(methoxymethyl)-1-methyl-pyrrolidin-1-ium-1-yl]cyclobutoxy]-3-methyl-phenyl]thieno[3,2-b]pyridin-2-yl]methyl]-1-(2,2,2-trifluoroethyl)pyrimidine-2,4-dione; 2,2,2-trifluoroacetate; 2,2,2-trifluoroacetic acid] | < 1000
15 | Cc1cc(Cl)cc(-c2ccnc3cc(Cn4c(=O)ccn(CC(F)(F)F)c4=O)sc23)c1OC1CCC1 [Example 683, 3-[[7-[5-chloro-2-(cyclobutoxy)-3-methyl-phenyl]thieno[3,2-b]pyridin-2-yl]methyl]-1-(2,2,2-trifluoroethyl)pyrimidine-2,4-dione] | < 1000

Same assay, conditions: recombinant full-length USP7 62 pM; ubiquitin-rhodamine 100 nM; 30-minute pre-incubation, 1 hour reaction at room temperature; read-out: Potency (USP7 IC50)

Row | SMILES | IC50 [nM]
16 | Cc1cc(Cl)cc(-c2ccnc3cc(Cn4c(=O)ccn(CC(F)(F)F)c4=O)sc23)c1OC1CC(N2CCOC[C@H]2C)C1 (stereo partly drawn) [Example 657, 3-[[7-[5-chloro-3-methyl-2-[3-[(3R)-3-methylmorpholin-4-yl]cyclobutoxy]phenyl]thieno[3,2-b]pyridin-2-yl]methyl]-1-(2,2,2-trifluoroethyl)pyrimidine-2,4-dione; 2,2,2-trifluoroacetic acid] | < 1000
17 | Cc1cc(Cl)cc(-c2ncnc3cc(Cn4c(=O)ccn(CC(F)(F)F)c4=O)sc23)c1O[C@H]1CC[C@H](N)C1 [Example 543, 3-[[4-[2-[(1S,3S)-3-aminocyclopentoxy]-5-chloro-3-methyl-phenyl]thieno[3,2-d]pyrimidin-6-yl]methyl]-1-(2,2,2-trifluoroethyl)pyrimidine-2,4-dione; 2,2,2-trifluoroacetic acid] | < 1000
18 | Cc1cc(Cl)cc(-c2ncnc3cc(Cn4c(=O)ccn(CC(F)(F)F)c4=O)sc23)c1O[C@H]1CC[C@](C)(N)C1 [Example 586, 3-[[4-[2-[(1S,3S)-3-amino-3-methyl-cyclopentoxy]-5-chloro-3-methyl-phenyl]thieno[3,2-d]pyrimidin-6-yl]methyl]-1-(2,2,2-trifluoroethyl)pyrimidine-2,4-dione; 2,2,2-trifluoroacetic acid] | < 1000
19 | Cc1cc(Cl)cc(-c2ccnc3cc(Cn4c(=O)ccn(CC(F)(F)F)c4=O)sc23)c1OC1CC(N2CCC[C@H]2CO)C1 (stereo partly drawn) [Example 624, 3-[[7-[5-chloro-2-[3-[(2S)-2-(hydroxymethyl)pyrrolidin-1-yl]cyclobutoxy]-3-methyl-phenyl]thieno[3,2-b]pyridin-2-yl]methyl]-1-(2,2,2-trifluoroethyl)pyrimidine-2,4-dione dihydrochloride] | < 1000

More lines, now with the values ahead:

Row | IC50 [nM] | SMILES
20 | < 1000 | Cc1cc(Cl)cc(-c2ccnc3cc(Cn4c(=O)ccn(C)c4=O)sc23)c1OCC1CNC1 [Example 487, 3-[[7-[2-(azetidin-3-ylmethoxy)-5-chloro-3-methyl-phenyl]thieno[3,2-b]pyridin-2-yl]methyl]-1-methyl-pyrimidine-2,4-dione]
21 | < 1000 | O=C1CCC(=O)N1Cc1cc2nccc(-c3cc(Cl)cc(C(F)F)c3O[C@@H]3CNC[C@@H]3F)c2s1 [Example 428, 1-[[7-[5-chloro-3-(difluoromethyl)-2-[(3R,4S)-4-fluoropyrrolidin-3-yl]oxy-phenyl]thieno[3,2-b]pyridin-2-yl]methyl]pyrrolidine-2,5-dione]
22 | < 1000 | Cc1cc(Cl)cc(-c2ncnc3cc(Cn4c(=O)ccn(CC(F)(F)F)c4=O)sc23)c1OC1CNC1 [Example 587, 3-[[4-[2-(azetidin-3-yloxy)-5-chloro-3-methyl-phenyl]thieno[3,2-d]pyrimidin-6-yl]methyl]-1-(2,2,2-trifluoroethyl)pyrimidine-2,4-dione]
23 | 1000 to 10000 | Cc1cc(Cl)cc(-c2ccnc3cc(Cn4c(=O)ccn(C)c4=O)sc23)c1O[C@H]1CN[C@H](C(=O)O)C1 [Example 600, (2S,4R)-4-[4-chloro-2-methyl-6-[2-[(3-methyl-2,6-dioxo-pyrimidin-1-yl)methyl]thieno[3,2-b]pyridin-7-yl]phenoxy]pyrrolidine-2-carboxylic acid]
24 | < 1000 | Cc1cc(Cl)cc(-c2ccnc3cc(CN4C(=O)C5C(C4=O)C5(C)C)sc23)c1O[C@H]1CCCNC1 (stereo partly drawn) [Example 436, 3-[[7-[5-chloro-3-methyl-2-[[(3S)-3-piperidyl]oxy]phenyl]thieno[3,2-b]pyridin-2-yl]methyl]-6,6-dimethyl-3-azabicyclo[3.1.0]hexane-2,4-dione dihydrochloride]
25 | < 1000 | Cc1cc(Cl)cc(-c2ccnc3cc(CN4C(=O)CCC4=O)sc23)c1OC1CCOCC1 [Example 450, 1-[[7-(5-chloro-3-methyl-2-tetrahydropyran-4-yloxy-phenyl)thieno[3,2-b]pyridin-2-yl]methyl]pyrrolidine-2,5-dione]
26 | < 1000 | CC[C@@H]1C[C@H](Oc2c(C)cc(Cl)cc2-c2ccnc3cc(Cn4c(=O)ccn(CC(F)(F)F)c4=O)sc23)CCN1 [Example 636, 3-[[7-[5-chloro-2-[[(2R,4R)-2-ethyl-4-piperidyl]oxy]-3-methyl-phenyl]thieno[3,2-b]pyridin-2-yl]methyl]-1-(2,2,2-trifluoroethyl)pyrimidine-2,4-dione]
